Reference: patent US8252820B2, “1-orthofluorophenyl substituted 1,2,5-thiazolidinedione derivatives as PTP-as inhibitors” (Novartis AG, priority 2005, dated 2012)
Structures can show the parent of a compound that is named as a salt.

Biological target: T1, human PTP-1B (Homo sapiens, UniProt P18031)
T1 construct: recombinant human PTP-1B[1-298] or PTP-1B[1-322]
T1 sequence (P18031 1-298 limits assumed): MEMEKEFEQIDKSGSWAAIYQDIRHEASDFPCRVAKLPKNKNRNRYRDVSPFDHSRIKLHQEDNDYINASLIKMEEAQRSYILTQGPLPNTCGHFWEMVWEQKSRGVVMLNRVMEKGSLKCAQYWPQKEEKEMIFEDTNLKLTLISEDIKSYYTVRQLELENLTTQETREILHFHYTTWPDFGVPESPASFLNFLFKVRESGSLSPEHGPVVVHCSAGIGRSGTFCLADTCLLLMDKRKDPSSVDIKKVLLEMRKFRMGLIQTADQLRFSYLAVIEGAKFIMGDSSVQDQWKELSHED
Assay: PTP-1B inhibitory activity in vitro (IC50)
Assay type: biochemical
Details: inhibitory activity to human PTP-1B
Experimental: Assessment of human PTP-1B (hPTP-1B) activity in the presence of various agents is determined by measuring the amount of inorganic phosphate released from a phosphopeptide substrate using a 96-well microtiter plate format. The assay (100 μL) is performed in an assay buffer comprised of 50 mM TRIS (pH 7.5), 50 mM NaCl, 3 mM DTT at ambient temperature. The assay is typically performed in the presence of 0.4% dimethyl sulfoxide (DMSO). However, concentrations as high as 10% are used with certain poorly soluble compounds. […] Inorganic phosphate, a product of the enzyme reaction, is quantitiated after 15 min as the green color resulting from complexing with the […] reagent and is determined as an A620 using a Molecular Devices (Sunnyvale, Calif.) SpectraMAX Plus spectrophotometer. […] Activity is defined as the net change in absorbance resulting from the activity of the uninhibited hPTP-1B[1-411] minus that of a tube with acid-inactivated hPTP-1B[1-411]. […] Alternatively, the assessment of human PTP-1B activity in the presence of various agents may be determined by measuring the hydrolysis products of known competing substrates. For example, cleavage of substrate para-nitrophenylphosphate (pNPP) results in the release of the yellow-colored para-nitrophenol (pNP) which can be monitored in real time using a spectrophotometer. […] Absorbance at 405 nm is measured using any standard 384 well plate reader. […]

| IC50 [nM] | SMILES |
| --- | --- |
| 104 | O=C1CN(c2c(O)cc(CC3CCCCC3)cc2F)S(=O)(=O)N1 [Example No. 13, 5-(4-Cyclohexylmethyl-2-fluoro-6-hydroxyphenyl)-1,1-dioxo-1,2,5-thiadiazolidin-3-one] |
| 158 | O=C1CN(c2c(O)c(F)cc(F)c2F)S(=O)(=O)N1 [Example No. 26, 1,1-Dioxo-5-(2,3,6-trifluoro-6-hydroxy-phenyl)-1,2,5]thiadiazolidin-3-one potassium salt] |
